The assay deals with T1, PDE10A enzyme (Homo sapiens, UniProt Q9Y233).
T1 construct: made in house; host or cells: E. coli BL21(DE3)
T1 sequence (Q9Y233 716-1055): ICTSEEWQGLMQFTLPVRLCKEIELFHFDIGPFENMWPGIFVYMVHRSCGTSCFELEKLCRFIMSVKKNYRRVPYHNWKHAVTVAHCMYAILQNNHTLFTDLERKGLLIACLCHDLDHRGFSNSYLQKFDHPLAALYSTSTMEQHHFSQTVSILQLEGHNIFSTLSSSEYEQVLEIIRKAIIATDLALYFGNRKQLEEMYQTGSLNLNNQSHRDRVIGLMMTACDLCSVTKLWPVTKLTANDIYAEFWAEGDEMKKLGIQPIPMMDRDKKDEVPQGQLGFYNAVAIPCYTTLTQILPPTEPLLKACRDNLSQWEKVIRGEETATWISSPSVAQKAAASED
Put plainly: PDE10A inhibition assay. The following applies: 3H-labelled cAMP substrate 5 nM, SPA beads, one hr at room temperature. Type of assay: biochemical. As for the experimental part:
Active PDE10A enzyme is prepared in a number of ways for use in PDE assays (Loughney, K. et al. Gene 1999, 234, 109-117; Fujishige, K. et al. Eur J Biochem. 1999, 266, 1118-1127 and Soderling, S. et al. Proc. Natl. Acad. Sci. 1999, 96, 7071-7076). PDE10A can be expressed as full-length proteins or as truncated proteins, as long as they express the catalytic domain. PDE10A can be prepared in different cell types, for example insect cells or E. coli. An example of a method to obtain catalytically active PDE10A is as follows: The catalytic domain of human PDE10A (amino acids 440-779 from the sequence with accession number NP 006652) is amplified from total human brain total RNA by standard RT-PCR and is cloned into the BamH1 and Xho1 sites of the pET28a vector (Novagen). Expression in coil is performed according to standard protocols. Briefly, the expression plasmids are transformed into the BL21(DE3) E. coli strain, and 50 mL cultures inoculated with the cells allowed to grow to an OD600 of 0.4-0.6 before protein expression is induced with 0.5mM IPTG. Following induction, the cells are incubated overnight at room temperature, after which the cells are collected by centrifugation. Cells expressing PDE10A are resuspended in 12 mL (50 mM TRIS-HCl-pH8.0, 1 mM MgCl2 and protease inhibitors). The cells are lysed by sonication, and after all cells are lysed, TritonX100 is added according to Novagen protocols.
A PDE10A assay may for example, be performed as follows: The assay is performed in 60 uL samples containing a fixed amount of the relevant PDE enzyme (sufficient to convert 20-25% of the cyclic nucleotide substrate), a buffer (50 mM HEPES7.6; 10 mM MgCl2; 0.02% Tween20), 0.1 mg/mI BSA, 225 pCi of ^3H-labelled cyclic nucleotide substrate, tritium labeled cAMP to a final concentration of 5 nM and varying amounts of inhibitors. Reactions are initiated by addition of the cyclic nucleotide substrate, and reactions are allowed to proceed for one hr at room temperature before being terminated through mixing with 15 uL 8 mg/mL yttrium silicate SPA beads (Amersham). The beads are allowed to settle for one hr in the dark before the plates are counted in a Wallac 1450 Microbeta counter. The measured signal can be converted to activity relative to an uninhibited control (100%) and IC50 values can be calculated using the XIfit extension to EXCEL.
Turning to `COc1ccc(C)n2nc(CCc3nc(-c4ccccc4)nn3C(C)C)nc12` [2-[2-(2-Isopropyl-5-phenyl-2H-[1,2,4]triazol-3-yl)-ethyl]-8-methoxy-5-methyl-[1,2,4]triazolo[1,5-a]pyridine], the IC50 was 0.056 µM. The figure for `Cc1ncc(C)n2nc(CCc3nc(-c4cncs4)nn3C)nc12` [5,8-Dimethyl-2-[2-(2-methyl-5-thiazol-5-yl-2H-[1,2,4]triazol-3-yl)-ethyl]-[1,2,4]triazolo[1,5-a]pyrazine] is 0.026 µM; for `Cc1ncc(C)n2nc(CCc3nc(-c4ccccn4)nn3C)nc12` [5,8-Dimethyl-2-[2-(2-methyl-5-pyridin-2-yl-2H-[1,2,4]triazol-3-yl)-ethyl]-[1,2,4]triazolo[1,5-a]pyrazine] it is 0.039 µM; for `Cc1cc(C)n2nc(CCc3nc(-c4ccccc4)nn3C)nc2n1` [5,7-Dimethyl-2-[2-(2-methyl-5-phenyl-2H-[1,2,4]triazol-3-yl)-ethyl]-[1,2,4]triazolo[1,5-a]pyrimidine] it is 0.059 µM.

`CCc1ccc(C)n2nc(CCc3nc(-c4ccccc4)nn3C)nc12` [8-Ethyl-5-methyl-2-[2-(2-methyl-5-phenyl-2H-[1,2,4]triazol-3-yl)-ethyl]-[1,2,4]triazolo[1,5-a]pyridine] gave an IC50 of 0.0075 µM.

Turning to `COc1ccc(C)n2nc(CSc3nc(-c4ccccc4)n[nH]3)nc12` [8-Methoxy-5-methyl-2-(5-phenyl-2H-[1,2,4]triazol-3-ylsulfanylmethyl)-[1,2,4]triazolo[1,5-a]pyridine], half-maximal inhibition (IC50) was put at 0.052 µM. The figure for `Cc1ncc(C)n2nc(/C=C/c3nc(-c4ccco4)n(C)n3)nc12` [2-[(E)-2-(5-Furan-2-yl-1-methyl-1H-[1,2,4]triazol-3-yl)-vinyl]-5,8-dimethyl-[1,2,4]triazolo[1,5-a]pyrazine] is 0.06 µM; for `COCCn1nc(-c2ccccc2)nc1CCc1nc2c(OC)ccc(C)n2n1` [8-Methoxy-2-{2-[2-(2-methoxy-ethyl)-5-phenyl-2H-[1,2,4]triazol-3-yl]-ethyl}-5-methyl-[1,2,4]triazolo[1,5-a]pyridine] it is 0.062 µM. Under `Cc1ncc(C)n2nc(CCc3nc(-c4nccs4)nn3C)nc12` [5,8-Dimethyl-2-[2-(2-methyl-5-thiazol-2-yl-2H-[1,2,4]triazol-3-yl)-ethyl]-[1,2,4]triazolo[1,5-a]pyrazine] stands 0.036 µM; under `Cc1ncc(C)n2nc(CCc3nc(-c4ccccc4)nn3CCC#N)nc12` [3-{5-[2-(5,8-Dimethyl-[1,2,4]triazolo[1,5-a]pyrazin-2-yl)-ethyl]-3-phenyl-[1,2,4]triazol-1-yl}-propionitrile], 0.025 µM. The figure for `Cc1ncc(C)n2nc(CCc3nc(-c4cccnc4)nn3C)nc12` [5,8-Dimethyl-2-[2-(2-methyl-5-pyridin-3-yl-2H-[1,2,4]triazol-3-yl)-ethyl]-[1,2,4]triazolo[1,5-a]pyrazine] is 0.11 µM. For the compound `Cc1ncc(C)n2nc(CCc3nc(-c4cccs4)nn3C)nc12` [5,8-Dimethyl-2-[2-(2-methyl-5-thiophen-2-yl-2H-[1,2,4]triazol-3-yl)-etnyl]-[1,2,4]triazolo[1,5-a]pyrazine], half-maximal inhibition (IC50) was put at 0.0056 µM. The compound `Cc1ncc(C)n2nc(CCc3nc(-c4ncco4)nn3C)nc12` [5,8-Dimethyl-2-[2-(2-methyl-5-oxazol-2-yl-2H-[1,2,4]triazol-3-yl)-ethyl]-[1,2,4]triazolo[1,5-a]pyrazine] displayed an IC50 of 0.12 µM. Compound `Cc1cccc2nc(CCc3nc(-c4ccccc4)nn3C)nn12` [5-Methyl-2-[2-(2-methyl-5-phenyl-2H-[1,2,4]triazol-3-yl)-ethyl]-[1,2,4]triazolo[1,5-a]pyridine] registered an IC50 of 0.22 µM. Under `CCc1ccc(C)n2nc(CCc3nc(-c4ccccc4)cn3CCCN)nc12` [3-{2-[2-(8-Ethyl-5-methyl-[1,2,4]triazolo[1,5-a]pyridin-2-yl)-ethyl]-4-phenyl-imidazol-1-yl}-propylamine] stands 0.15 µM. Under `Cc1cnc(-c2nc(CCc3nc4c(C)ncc(C)n4n3)n(C)n2)s1` [5,8-Dimethyl-2-{2-[2-methyl-5-(5-methyl-thiazol-2-yl)-2H-[1,2,4]triazol-3-yl]-ethyl}-[,2,4]triazolo[1,5-a]pyrazine] stands 0.12 µM; under `COc1ccc(C)n2nc(CCc3nc(-c4ccccc4)nn3CC(F)(F)F)nc12` [8-Methoxy-5-methyl-2-{2-[5-phenyl-2-(2,2,2-trifluoro-ethyl)-2H-[1,2,4]triazol-3-yl]-ethyl}-[1,2,4]triazolo[1,5-a]pyridine], 0.18 µM; under `CCc1ccc(C)n2nc(CCc3nc(-c4ccccc4)nn3C(C)C)nc12` [8-Ethyl-2-[2-(2-isopropyl-5-phenyl-2H-[1,2,4]triazol-3-yl)-ethyl]-5-methyl-[1,2,4]triazolo[1,5-a]pyridine], 0.04 µM. For `Cc1ncc(C)n2nc(CCc3nc(-c4ccco4)n(C)n3)nc12` [2-[2-(5-Furan-2-yl-1-methyl-1H-[1,2,4]triazol-3-yl)-ethyl]-5,8-dimethyl-[1,2,4]triazolo[1,5-a]pyrazine], the IC50 was determined as 0.038 µM.

In turn, `Cc1ncc(C)n2nc(CCc3nc(-c4ccsc4)nn3C)nc12` [5,8-Dimethyl-2-[2-(2-methyl-5-thiophen-3-yl-2H-[1,2,4]triazol-3-yl)-ethyl]-[1,2,4]triazolo[1,5-a]pyrazine] came in with an IC50 of 0.0053 µM.

`COc1ccc(C)n2nc(CCc3nc(-c4ccccc4)nn3CCO)nc12` [2-{5-[2-(8-Methoxy-5-methyl-[1,2,4]triazolo[1,5-a]pyridin-2-yl)-ethyl]-3-phenyl-[1,2,4]triazol-1-yl}-ethanol] gave an IC50 of 0.023 µM. Under `Cc1ncc(C)n2nc(CSc3nc(-c4ccccc4)n[nH]3)nc12` [5,8-Dimethyl-2-(5-phenyl-2H-[1,2,4]triazol-3-ylsulfanylmethyl)-[1,2,4]triazolo[1,5-a]pyrazine] stands 0.053 µM; under `Cc1cnc(C)n2nc(CCc3nc(-c4ccccc4)nn3C)nc12` [5,8-Dimethyl-2-[2-(2-methyl-5-phenyl-2H-[1,2,4]triazol-3-yl)-ethyl]-[1,2,4]triazolo[1,5-c]pyrimidine], 0.036 µM; under `Cc1ncc(C)n2nc(CCc3nc(-c4ccccc4)nn3C)nc12` [5,8-Dimethyl-2-[2-(2-methyl-5-phenyl-2H-[1,2,4]triazol-3-yl)-ethyl]-[1,2,4]triazolo[1,5-a]pyrazine], 0.015 µM.

The compound `CCc1ccc(C)n2nc(CCc3nc(-c4ccccc4)nn3CCC#N)nc12` [3-{5-[2-(8-Ethyl-5-methyl-[1,2,4]triazolo[1,5-a]pyridin-2-yl)-ethyl]-3-phenyl-[1,2,4]triazol-1-yl}-propionitrile] had an IC50 of 0.014 µM. Under `Cc1ncc(C)n2nc(CCc3nc(-c4ccccc4)nn3CCCN)nc12` [3-{5-[2-(5,8-Dimethyl-[1,2,4]triazolo[1,5-a]pyrazin-2-yl)-ethyl]-3-phenyl-[1,2,4]triazol-1-yl}-propylamine] stands 0.1 µM; under `COCCn1nc(-c2ccccc2)nc1CCc1nc2c(C)ncc(C)n2n1` [2-{2-[2-(2-Methoxy-ethyl)-5-phenyl-2H-[1,2,4]triazol-3-yl]-ethyl}-5,8-dimethyl-[1,2,4]triazolo[1,5-a]pyrazine], 0.014 µM. Under `Cc1cccn2nc(CCc3nc(-c4ccccc4)nn3C)nc12` [8-Methyl-2-[2-(2-methyl-5-phenyl-2H-[1,2,4]triazol-3-yl)-ethyl]-[1,2,4]triazolo[1,5-a]pyridine] stands 0.17 µM.

What is called IC50 is the concentration at which inhibition is half-maximal. Read a low IC50 as greater potency.

Values taken from patent publication US8785653B2, “(3-aryl-1H-1,2,4-triazol-5-yl)-linked heterocycle derivatives” (H. Lundbeck A/S, priority 2009, dated 2014).
